# Target: T1, SRC (Homo sapiens, UniProt P12931)
# T1 construct: purchased Carna Biosciences
# Assay: In vitro kinase assay, SRC (Caliper EZ Reader conversion)
# Assay type: biochemical
# Settings: read-out: SRC IC50
# Procedure: (§1) The effect of the compounds on the activity of SRC and PAK1 kinase were assessed. SRC and PAK1 kinase enzymes were obtained from Carna Biosciences.
# Test compounds were dissolved in 100% DMSO to prepare a 20 mM stock. Compounds were stored in −20° C. and protected from light. […] Saracatinib was used as a positive control for the SRC assay, and FRAX597 was used as a positive control for the PAK1 assay. For the positive controls, a 3-fold serial dilution was made to achieve a total of 10 concentrations. 10 μL 1× Kinase buffer was used as the negative control.
# First, 250 nL of the compounds at each dilution were transferred into wells of a 384-well plate. […] Then, 10 μL of enzyme mix was added to the 384-well plate, and the enzymes and compounds were pre-incubated at room temperature for 10 minutes. […] Then, 15 μL of substrate mix was added to a 384-well plate and reacted at room temperature for 30 min and 60 min. The reaction was stopped by adding 30 μL of the stop buffer, and the conversion rate was read using a Caliper EZ Reader.
# (§2) Percent inhibition is calculated according to the following equation: […]
# (§3) wherein “Conversion %_sample” is the conversion percentage value of the sample; “Conversion %_min” is the average conversion percentage value of the negative control; and “Conversion %_max” is the average conversion percentage value of the positive control.
# (§4) The dose-response curve was fitted using GraphPad Prism software (version 5, […]), and the IC50 values for each compounds were calculated by log(inhibitor) vs. response using a variable slope program with the following formula:
# (§5) Y=Bottom+(Top-Bottom)/(1+10^((Log IC50−X)*HillSlope))
# T1 sequence (P12931 whole entry): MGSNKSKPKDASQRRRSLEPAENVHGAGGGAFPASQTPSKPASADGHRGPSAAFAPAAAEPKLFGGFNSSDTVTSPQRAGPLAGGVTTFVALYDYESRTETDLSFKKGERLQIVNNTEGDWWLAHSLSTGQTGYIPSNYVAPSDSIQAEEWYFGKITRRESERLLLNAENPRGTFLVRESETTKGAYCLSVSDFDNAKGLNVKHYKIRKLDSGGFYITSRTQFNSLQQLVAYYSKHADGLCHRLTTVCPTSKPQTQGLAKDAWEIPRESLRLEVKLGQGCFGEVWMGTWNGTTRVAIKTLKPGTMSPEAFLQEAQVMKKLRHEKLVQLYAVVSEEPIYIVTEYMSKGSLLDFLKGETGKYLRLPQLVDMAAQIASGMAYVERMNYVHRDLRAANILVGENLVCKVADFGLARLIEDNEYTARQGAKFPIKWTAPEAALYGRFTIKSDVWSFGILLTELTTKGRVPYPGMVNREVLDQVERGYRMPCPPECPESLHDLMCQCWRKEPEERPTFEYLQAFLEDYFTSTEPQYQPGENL
row,Compound,IC50
1,"Fc1cc(Nc2ncc3c(n2)N2CCN=C2C(c2ccc(Cl)cc2Cl)=C3)ccc1N1CCNCC1 [Compound 1, 6-(2,4-dichlorophenyl)-N-(3-fluoro-4-(piperazin-1-yl)phenyl)-8,9-dihydroimidazo[1′,2′:1,6]pyrido[2,3-d]pyrimidin-2-amine]",< 0.1 µM
2,"CN1CCN(c2ccc(Nc3ncc4c(n3)N3CCN=C3C(c3ccc(Cl)cc3Cl)=C4)c(F)c2)CC1 [Compound 8, 6-(2,4-dichlorophenyl)-N-(2-fluoro-4-(4-methylpiperazin-1-yl)phenyl)-8,9-dihydroimidazo[1′,2′:1,6]pyrido[2,3-d]pyrimidin-2-amine]",< 0.1 µM
3,"CCN1CCN(c2ccc(Nc3ncc4c(n3)N3CCN=C3C(c3ccc(Cl)cc3Cl)=C4)c(F)c2)CC1 [Compound 9, 6-(2,4-dichlorophenyl)-N-(4-(4-ethylpiperazin-1-yl)-2-fluorophenyl)-8,9-dihydroimidazo[1′,2′:1,6]pyrido[2,3-d]pyrimidin-2-amine]",< 0.1 µM
4,"Fc1cc(N2CCNCC2)ccc1Nc1ncc2c(n1)N1CCN=C1C=C2 [Compound 10, N-(2-fluoro-4-(piperazin-1-yl)phenyl)-8,9-dihydroimidazo[1′,2′:1,6]pyrido[2,3-d]pyrimidin-2-amine]",> 10 µM
5,"COc1nc(N2CCNCC2)ccc1Nc1ncc2c(n1)N1CCN=C1C(c1ccncc1)=C2 [Compound 41, N-(2-methoxy-6-(piperazin-1-yl)pyridin-3-yl)-6-(pyridin-4-yl)-8,9-dihydroimidazo[1′,2′:1,6]pyrido[2,3-d]pyrimidin-2-amine]",> 10 µM
6,"Clc1cccc(Cl)c1C1=Cc2cnc(N3CCN(c4ccncc4)CC3)nc2N2CCN=C12 [Compound 51, 6-(2,6-dichlorophenyl)-2-(4-(pyridin-4-yl)piperazin-1-yl)-8,9-dihydroimidazo[1′,2′:1,6]pyrido[2,3-d]pyrimidine]",0.1 to 10 µM

# The remaining lines, values ahead:
row,IC50,Compound
1,> 10 µM,"C1=C(c2ccccc2)C2=NCCCN2c2nc(Nc3ccncc3)ncc21 [Compound 53, 6-phenyl-N-(pyridin-4-yl)-9,10-dihydro-8H-pyrido[1,6-a:2,3-d′]dipyrimidin-2-amine]"
2,> 10 µM,"Clc1ccccc1C1=Cc2cnc(Nc3ccncc3)nc2N2CCCN=C12 [Compound 54, 6-(2-chlorophenyl)-N-(pyridin-4-yl)-9,10-dihydro-8H-pyrido[1,6-a:2,3-d′]dipyrimidin-2-amine]"
3,> 10 µM,"Fc1cnccc1Nc1ncc2c(n1)N1CCCN=C1C(c1ccccc1)=C2 [Compound 55, N-(3-fluoropyridin-4-yl)-6-phenyl-9,10-dihydro-8H-pyrido[1,6-a:2,3-d′]dipyrimidin-2-amine]"
4,> 10 µM,"Fc1ccccc1Nc1ncc2c(n1)N1CCCN=C1C(c1ccccc1)=C2 [Compound 56, N-(2-fluorophenyl)-6-phenyl-9,10-dihydro-8H-pyrido[1,6-a:2,3-d′]dipyrimidin-2-amine]"
5,0.1 to 10 µM,"COc1cccc(Nc2ncc3c(n2)N2CCCN=C2C(c2ccccc2Cl)=C3)c1 [Compound 60, 6-(2-chlorophenyl)-N-(3-methoxyphenyl)-9,10-dihydro-8H-pyrido[1,6-a:2,3-d′]dipyrimidin-2-amine]"
6,0.1 to 10 µM,"COc1ccccc1Nc1ncc2c(n1)N1CCCN=C1C(c1ccccc1Cl)=C2 [Compound 61, 6-(2-chlorophenyl)-N-(2-methoxyphenyl)-9,10-dihydro-8H-pyrido[1,6-a:2,3-d′]dipyrimidin-2-amine]"
7,0.1 to 10 µM,"CCNc1ncc2c(n1)N1CCCN=C1C(c1c(C)ccc3[nH]ncc13)=C2 [Compound 66, N-ethyl-6-(5-methyl-1H-indazol-4-yl)-9,10-dihydro-8H-pyrido[1,6-a:2,3-d′]dipyrimidin-2-amine]"
8,> 10 µM,"Oc1ccncc1Nc1ncc2c(n1)N1CCCN=C1C(c1ccccc1Cl)=C2 [Compound 67, 3-((6-(2-chlorophenyl)-9,10-dihydro-8H-pyrido[1,6-a:2,3-d′]dipyrimidin-2-yl)amino)pyridin-4-ol]"
9,0.1 to 10 µM,"Cc1ccc(NC(=O)c2cc(C(F)(F)F)ccn2)cc1C1=Cc2cnc(N)nc2N2CCCN=C12 [Compound 76, N-(3-(2-amino-9,10-dihydro-8H-pyrido[1,6-a:2,3-d′]dipyrimidin-6-yl)-4-methylphenyl)-4-(trifluoromethyl)picolinamide]"

# Target: HPK1 (MAP4K1) (Homo sapiens, UniProt Q92918)
# Assay: HPK1 (MAP4K1) kinase Lantha screen assay
# Assay type: biochemical
# Settings: not given
# Method in brief: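 Recombinant MAP4K1 preincubated 10 min with compound (6-point dilution, duplicates) in 50 mM HEPES pH 7.5, 10 mM MgCl2, then reacted with Fluorescein-PKC substrate and ATP for 90 min at room temperature. Antibody detection solution stopped reaction; after 60 min, TR-FRET read at ex 340 nm, em 520/495 nm.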
# Chain of HPK1 (MAP4K1) (Q92918 whole entry, species assumed): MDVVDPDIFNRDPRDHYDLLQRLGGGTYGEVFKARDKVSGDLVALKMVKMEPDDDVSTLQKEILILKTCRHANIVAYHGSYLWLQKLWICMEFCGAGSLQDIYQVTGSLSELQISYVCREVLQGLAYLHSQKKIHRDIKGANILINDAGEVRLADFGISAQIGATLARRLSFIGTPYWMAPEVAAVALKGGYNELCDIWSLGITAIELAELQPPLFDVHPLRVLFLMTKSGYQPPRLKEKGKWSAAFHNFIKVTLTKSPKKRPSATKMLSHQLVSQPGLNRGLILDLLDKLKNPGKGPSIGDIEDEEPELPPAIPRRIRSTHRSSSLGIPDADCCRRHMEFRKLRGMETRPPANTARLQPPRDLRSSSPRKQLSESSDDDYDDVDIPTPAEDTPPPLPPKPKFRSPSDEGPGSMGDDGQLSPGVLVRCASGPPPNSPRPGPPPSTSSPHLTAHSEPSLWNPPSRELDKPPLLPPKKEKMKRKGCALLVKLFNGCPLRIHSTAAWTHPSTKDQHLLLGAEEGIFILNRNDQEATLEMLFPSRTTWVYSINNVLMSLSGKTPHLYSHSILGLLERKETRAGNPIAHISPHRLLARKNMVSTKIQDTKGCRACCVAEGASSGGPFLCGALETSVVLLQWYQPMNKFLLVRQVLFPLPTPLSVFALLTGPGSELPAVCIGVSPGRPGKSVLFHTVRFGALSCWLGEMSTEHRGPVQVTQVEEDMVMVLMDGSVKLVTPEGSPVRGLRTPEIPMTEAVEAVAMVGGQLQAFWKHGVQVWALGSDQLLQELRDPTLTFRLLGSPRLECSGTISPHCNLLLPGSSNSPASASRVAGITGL
row,IC50,Compound
1,0.1 to 10 µM,"CNc1ncc2c(n1)N1CCN=C1C(c1cc(NC(=O)C3(C(=O)Nc4ccc(F)cc4)CC3)ccc1Cl)=C2 [Compound 342, N-(4-chloro-3-(2-(methylamino)-8,9-dihydroimidazo[1′,2′:1,6]pyrido[2,3-d]pyrimidin-6-yl)phenyl)-N-(4-fluorophenyl)cyclopropane-1,1-dicarboxamide]"
2,> 10 µM,"CNc1ncc2c(n1)N1CCN=C1C(c1cc(NC(=O)C3(C(=O)Nc4ccc(F)cc4)CC3)c(F)cc1C)=C2 [Compound 343, N-(2-fluoro-4-methyl-5-(2-(methylamino)-8,9-dihydroimidazo[1′,2′:1,6]pyrido[2,3-d]pyrimidin-6-yl)phenyl)-N-(4-fluorophenyl)cyclopropane-1,1-dicarboxamide]"
3,> 10 µM,"Cc1cc(F)c(NC(=O)C2(C(=O)Nc3ccc(F)cc3)CC2)cc1C1=Cc2cnc(NC3COC3)nc2N2CCN=C12 [Compound 344, N-(2-fluoro-4-methyl-5-(2-(oxetan-3-ylamino)-8,9-dihydroimidazo[1′,2′:1,6]pyrido[2,3-d]pyrimidin-6-yl)phenyl)-N-(4-fluorophenyl)cyclopropane-1,1-dicarboxamide]"

# Target: PAK1 (Homo sapiens, UniProt Q13153)
# Assay: In vitro kinase assay, PAK1 (Caliper EZ Reader conversion)
# Assay type: biochemical
# Design: purchased Carna Biosciences
# Settings: not given
# Procedure: as §1
# Test compounds were dissolved in 100% DMSO to prepare a 20 mM stock. Compounds were stored in −20° C. and protected from light. A 100×solution of the compounds were prepared, from which 4-fold serial dilutions was made to achieve a total of 6 concentrations. Saracatinib was used as a positive control for the SRC assay, and FRAX597 was used as a positive control for the PAK1 assay. For the positive controls, a 3-fold serial dilution was made to achieve a total of 10 concentrations. 10 μL 1× Kinase buffer was used as the negative control.
# First, 250 nL of the compounds at each dilution were transferred into wells of a 384-well plate. The PAK1 and SRC kinases were diluted to a 2.5×final concentration with 1×Kinase buffer. Then, 10 μL of enzyme mix was added to the 384-well plate, and the enzymes and compounds were pre-incubated at room temperature for 10 minutes. […] Then, 15 μL of substrate mix was added to a 384-well plate and reacted at room temperature for 30 min and 60 min. The reaction was stopped by adding 30 μL of the stop buffer, and the conversion rate was read using a Caliper EZ Reader.
# as §2, §3, §4, §5
# Chain of PAK1 (Q13153 whole entry): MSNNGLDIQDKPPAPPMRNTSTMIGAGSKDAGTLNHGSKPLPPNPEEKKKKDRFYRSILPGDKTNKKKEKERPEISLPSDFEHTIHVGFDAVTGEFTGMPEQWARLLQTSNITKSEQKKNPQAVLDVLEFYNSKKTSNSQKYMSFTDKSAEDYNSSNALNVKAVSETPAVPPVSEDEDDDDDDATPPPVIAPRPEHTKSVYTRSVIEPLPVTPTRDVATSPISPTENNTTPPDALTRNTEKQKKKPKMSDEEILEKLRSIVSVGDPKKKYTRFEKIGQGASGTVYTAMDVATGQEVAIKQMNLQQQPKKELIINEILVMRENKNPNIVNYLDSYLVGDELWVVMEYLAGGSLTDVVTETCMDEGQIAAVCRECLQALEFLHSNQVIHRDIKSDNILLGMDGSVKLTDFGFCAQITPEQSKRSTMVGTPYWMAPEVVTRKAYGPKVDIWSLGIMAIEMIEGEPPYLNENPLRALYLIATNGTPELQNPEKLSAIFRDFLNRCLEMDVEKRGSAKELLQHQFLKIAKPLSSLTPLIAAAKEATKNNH
row,IC50,Compound
1,< 0.1 µM,"Fc1cc(Nc2ncc3c(n2)N2CCN=C2C(c2ccc(Cl)cc2Cl)=C3)ccc1N1CCNCC1 [Compound 1, 6-(2,4-dichlorophenyl)-N-(3-fluoro-4-(piperazin-1-yl)phenyl)-8,9-dihydroimidazo[1′,2′:1,6]pyrido[2,3-d]pyrimidin-2-amine]"
2,< 0.1 µM,"CN1CCN(c2ccc(Nc3ncc4c(n3)N3CCN=C3C(c3ccc(Cl)cc3Cl)=C4)cc2F)CC1 [Compound 2, 6-(2,4-dichlorophenyl)-N-(3-fluoro-4-(4-methylpiperazin-1-yl)phenyl)-8,9-dihydroimidazo[1′,2′:1,6]pyrido[2,3-d]pyrimidin-2-amine]"
3,> 10 µM,"Cc1ccccc1C1=Cc2cnc(Nc3ccc(N4CCNCC4)cc3F)nc2N2CCN=C12 [Compound 30, N-(2-fluoro-4-(piperazin-1-yl)phenyl)-6-(o-tolyl)-8,9-dihydroimidazo[1′,2′:1,6]pyrido[2,3-d]pyrimidin-2-amine]"
4,> 10 µM,"Fc1cc(N2CCNCC2)ccc1Nc1ncc2c(n1)N1CCN=C1C(c1ccccn1)=C2 [Compound 32, N-(2-fluoro-4-(piperazin-1-yl)phenyl)-6-(pyridin-2-yl)-8,9-dihydroimidazo[1′,2′:1,6]pyrido[2,3-d]pyrimidin-2-amine]"
5,0.1 to 10 µM,"Fc1cc(N2CCNCC2)ccc1Nc1ncc2c(n1)N1CCN=C1C(c1cscn1)=C2 [Compound 33, N-(2-fluoro-4-(piperazin-1-yl)phenyl)-6-(thiazol-4-yl)-8,9-dihydroimidazo[1′,2′:1,6]pyrido[2,3-d]pyrimidin-2-amine]"
6,> 10 µM,"Fc1cc(N2CCNCC2)ccc1Nc1ncc2c(n1)N1CCN=C1C(c1ccncc1)=C2 [Compound 34, N-(2-fluoro-4-(piperazin-1-yl)phenyl)-6-(pyridin-4-yl)-8,9-dihydroimidazo[1′,2′:1,6]pyrido[2,3-d]pyrimidin-2-amine]"
7,> 10 µM,"COc1nc(N2CCNCC2)ccc1Nc1ncc2c(n1)N1CCN=C1C(c1ccccc1)=C2 [Compound 37, N-(2-methoxy-6-(piperazin-1-yl)pyridin-3-yl)-6-phenyl-8,9-dihydroimidazo[1′,2′:1,6]pyrido[2,3-d]pyrimidin-2-amine]"
8,> 10 µM,"COc1nc(N2CCNCC2)ccc1Nc1ncc2c(n1)N1CCN=C1C(c1ccc(C)cc1)=C2 [Compound 38, N-(2-methoxy-6-(piperazin-1-yl)pyridin-3-yl)-6-(p-tolyl)-8,9-dihydroimidazo[1′,2′:1,6]pyrido[2,3-d]pyrimidin-2-amine]"
9,0.1 to 10 µM,"Clc1ccccc1C1=Cc2cnc(Nc3ccc(N4CCOCC4)cc3)nc2N2CCN=C12 [Compound 89, 6-(2-chlorophenyl)-N-(4-morpholinophenyl)-8,9-dihydroimidazo[1′,2′:1,6]pyrido[2,3-d]pyrimidin-2-amine]"

# — patent US20230303570A1, “KINASE INHIBITORS AND USES THEREOF” (ABM Therapeutics Corporation, priority 2020, published 2023)
